Literature values in patent publication US20020146694A1, “Functionating genomes with cross-species coregulation” (priority 2001, published 2002).

Test system: wild type yeast cells
Conditions: 10 micrograms/ml

SMILES: C[C@H]1c2cccc(O)c2C(=O)C2=C(O)[C@]3(O)C(=O)C(C(N)=O)=C(O)[C@@H](N(C)C)[C@@H]3[C@@H](O)[C@@H]21 [doxycycline]
- effect on the growth rate: no significant effect
